Results from ChEMBL document CHEMBL1201862, “PubChem BioAssay data set” (2004).
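Exposure lasted 48 hours, with cells grown in 96-well plates and compounds tested at five concentrations. Abbreviation: GI50, concentration required for 50% inhibition of growth.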 The source made the active and inactive calls. No stated cut-off is given here; in the data, active = GI50 up to about 1.1 µM and inactive = higher.

Legend:
Test in all cases: NCI-60 cell line screen, 48 h
[1] = tested on: 786-0
[2] = tested on: A549
[3] = tested on: HCT-116
[4] = tested on: HCT-15
[5] = tested on: HT-29
[6] = tested on: MCF7
[7] = tested on: OVCAR-8
[8] = tested on: SF-295
[9] = tested on: SK-MEL-28
[10] = tested on: SK-MEL-2
[11] = tested on: SK-OV-3
[12] = tested on: SN12C
[13] = tested on: SNB-19
[14] = tested on: T47D
[15] = tested on: TK-10
[16] = tested on: U-251
[17] = tested on: RXF 393

Row | SMILES | GI50 [1] | GI50 [2] | GI50 [3] | GI50 [4] [µM] | GI50 [5] | GI50 [6] | GI50 [7] | GI50 [8] | GI50 [9] | GI50 [10] | GI50 [11] | GI50 [12] | GI50 [13] | GI50 [14] | GI50 [15] | GI50 [16] | GI50 [17]
1 | O=C(O)Cn1ccc(=O)c2ccc([N+](=O)[O-])cc21 | > 100 µM (inactive) | > 100 µM (inactive) | > 100 µM (inactive) | > 100 | > 100 µM (inactive) | > 100 µM (inactive) | > 100 µM (inactive) | > 100 µM (inactive) | > 100 µM (inactive) | > 100 µM (inactive) | > 100 µM (inactive) | > 100 µM (inactive) | > 100 µM (inactive) | > 100 µM (inactive) | > 100 µM (inactive) | > 100 µM (inactive) | 
2 | O/N=C(/C(Cl)=C(Cl)Cl)C(Cl)Cl | 18.7 µM (inactive) | > 100 µM (inactive) | 17.9 µM (inactive) | 17.2 | 16.7 µM (inactive) | 25.6 µM (inactive) | 23.9 µM (inactive) | 19.2 µM (inactive) | 15.2 µM (inactive) |  | 28.8 µM (inactive) | 18.1 µM (inactive) | 31.5 µM (inactive) |  | 18.3 µM (inactive) | 19.5 µM (inactive) | 16.3 µM (inactive)
3 | CC(C)=CCC[C@@H](C)/C=C/C=C(\C)C(=O)CC[C@@H]1CC[N@+]2(C)CCCC[C@H]12 | > 100 µM (inactive) | > 100 µM (inactive) | > 100 µM (inactive) | > 100 |  | > 100 µM (inactive) | > 100 µM (inactive) | > 100 µM (inactive) | > 100 µM (inactive) | > 100 µM (inactive) |  | > 100 µM (inactive) | 31.3 µM (inactive) | > 100 µM (inactive) | > 100 µM (inactive) | 23.9 µM (inactive) | 35.1 µM (inactive)
4 | Cc1ccc2c(c1)C(=C(C#N)C#N)CCCS2(=O)=O | > 100 µM (inactive) | > 100 µM (inactive) | > 100 µM (inactive) | > 100 | > 100 µM (inactive) |  | > 100 µM (inactive) | > 100 µM (inactive) | > 100 µM (inactive) | > 100 µM (inactive) | > 100 µM (inactive) | > 100 µM (inactive) | > 100 µM (inactive) | > 100 µM (inactive) | > 100 µM (inactive) | > 100 µM (inactive) | > 100 µM (inactive)
5 | COc1cc2nc(-c3cccs3)nc(Cl)c2cc1OC | > 100 µM (inactive) | > 100 µM (inactive) | > 100 µM (inactive) | > 100 | 61.7 µM (inactive) | 23.4 µM (inactive) | > 100 µM (inactive) | > 100 µM (inactive) | > 100 µM (inactive) | > 100 µM (inactive) | > 100 µM (inactive) | > 100 µM (inactive) | > 100 µM (inactive) | > 100 µM (inactive) | > 100 µM (inactive) | > 100 µM (inactive) | 
6 | CC(C)(C)C(=O)C(CC(=O)c1ccccc1)C(=O)C(C)(C)C | > 100 µM (inactive) | > 100 µM (inactive) | > 100 µM (inactive) | > 100 | > 100 µM (inactive) | > 100 µM (inactive) | > 100 µM (inactive) | > 100 µM (inactive) | > 100 µM (inactive) | > 100 µM (inactive) | > 100 µM (inactive) | > 100 µM (inactive) | > 100 µM (inactive) | > 100 µM (inactive) | > 100 µM (inactive) | > 100 µM (inactive) | 
7 | O=C1NC(=S)N/C1=C/c1c(-c2ccccc2)[nH]c2ccccc12 | 14 µM (inactive) |  | 14.3 µM (inactive) | 14.7 | 16.3 µM (inactive) | 15.2 µM (inactive) | 14.4 µM (inactive) | 12.8 µM (inactive) | 16.6 µM (inactive) | 13.2 µM (inactive) |  | 18.5 µM (inactive) | 16.5 µM (inactive) |  | 15.8 µM (inactive) | 15.7 µM (inactive) | 15.3 µM (inactive)
8 | COc1cc2nc3c(=C(C#N)C#N)c4ccccc4n3c(=O)c2cc1OC | > 100 µM (inactive) | > 100 µM (inactive) | > 100 µM (inactive) | > 100 | > 100 µM (inactive) | > 100 µM (inactive) | > 100 µM (inactive) | > 100 µM (inactive) |  | > 100 µM (inactive) | > 100 µM (inactive) | > 100 µM (inactive) | > 100 µM (inactive) | > 100 µM (inactive) | > 100 µM (inactive) | > 100 µM (inactive) | > 100 µM (inactive)
9 | Clc1ccc(C2=NNC(c3cccc(Cl)c3)C2)cc1 (stereo not drawn) | 28.3 µM (inactive) | 23.2 µM (inactive) | 26.7 µM (inactive) |  | 36.9 µM (inactive) | 17.4 µM (inactive) |  | 29.1 µM (inactive) |  | 0.362 µM (active) | 22 µM (inactive) | 21.4 µM (inactive) | 34.4 µM (inactive) | 44.6 µM (inactive) | 26.4 µM (inactive) | 16.5 µM (inactive) | 31.3 µM (inactive)
